We go through eleven compounds from ChEMBL document CHEMBL1201862, “PubChem BioAssay data set” (2004).

Some test systems named below: SK-MEL-5; HCC 2998; UACC-257; CCRF-CEM; OVCAR-4; HCT-116; NCI/ADR-RES; DU-145; T47D; OVCAR-5; MDA-MB-231; RXF 393; HOP-62; IGROV-1; OVCAR-3; BT-549; CAKI-1; HCT-15; Malme-3M; NCI-H522.
Common to all, as to assay: NCI anticancer screen, dose series, 48 h

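Interpolation was linear, between the two tested concentrations surrounding the appropriate level; five concentrations were tested over 48 hours in 96-well plates. GI50 = concentration required for 50% inhibition of growth.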 Activity calls are given as the source filed them. Cut-off read from the data, not from the text of the source: active = GI50 up to about 1.1 µM and inactive = higher.

With `COc1ccc(-c2nc(Nc3ccccc3)sc2Cc2sc(Nc3ccccc3)nc2-c2ccc(OC)cc2)cc1`, the GI50 in the experiment on SK-MEL-5 was > 100 µM (inactive); with HCC 2998, > 100 µM (inactive); with UACC-257, > 100 µM (inactive); in the experiment on CCRF-CEM it was 36.5 µM (inactive); in the experiment on OVCAR-4, 24.3 µM (inactive); in the experiment on HCT-116, 43.4 µM (inactive). For the same compound, the GI50 in the experiment with NCI/ADR-RES was > 100 µM (inactive); in the experiment on DU-145 it was > 100 µM (inactive); in the experiment with T47D it was 38.5 µM (inactive); with OVCAR-5 it was > 100 µM (inactive); with MDA-MB-231, > 100 µM (inactive); in the experiment on RXF 393, 4.35 µM (inactive). Moreover, the GI50 is > 100 µM (inactive) with HOP-62; > 100 µM (inactive) with IGROV-1; 17.1 µM (inactive) in the experiment with OVCAR-3; > 100 µM (inactive) with BT-549; > 100 µM (inactive) with CAKI-1; greater than 100 µM in the experiment on HCT-15. Further, the GI50 in the experiment with Malme-3M is > 100 µM (inactive).
In the case of `CN(C)c1ccc(/C=N/NC(=S)Nc2ccccc2)cc1`, the GI50 in the experiment with SK-MEL-5, with UACC-257, in the experiment with NCI-H522, in the experiment with CCRF-CEM, in the experiment with OVCAR-4 and in the experiment on HCT-116 was > 100 µM (inactive) in each case. Besides, the GI50 in the experiment on NCI/ADR-RES, in the experiment with DU-145, with T47D, with OVCAR-5, with MDA-MB-231 and with RXF 393 was > 100 µM (inactive) in each case. The GI50 was 96.4 µM (inactive) with HOP-62; > 100 µM (inactive) with IGROV-1; > 100 µM (inactive) with OVCAR-3; > 100 µM (inactive) in the experiment on BT-549; > 100 µM (inactive) in the experiment on CAKI-1; greater than 100 µM with HCT-15. Also, the GI50 in the experiment with Malme-3M is > 100 µM (inactive).
With `O=C(Nc1sccc1S(=O)(=O)c1ccccc1)c1ccccc1`, the GI50 in the experiment on SK-MEL-5 is > 79.3 µM (inactive); in the experiment on HCC 2998, > 100 µM (inactive); in the experiment on UACC-257 it was > 100 µM (inactive); in the experiment on NCI-H522, > 100 µM (inactive); in the experiment with OVCAR-4 it was > 57.9 µM (inactive); with HCT-116, > 100 µM (inactive). Besides, the GI50 in the experiment on NCI/ADR-RES is > 100 µM (inactive); in the experiment on DU-145, > 100 µM (inactive); in the experiment on T47D, > 100 µM (inactive); in the experiment on OVCAR-5 it was > 100 µM (inactive); in the experiment on MDA-MB-231, > 36.1 µM (inactive); in the experiment on HOP-62, > 70.5 µM (inactive). The GI50 is > 100 µM (inactive) with IGROV-1; 99.5 µM (inactive) in the experiment on OVCAR-3; > 100 µM (inactive) with BT-549; > 100 µM (inactive) in the experiment on CAKI-1; 7.16 µM with HCT-15; > 100 µM (inactive) with Malme-3M.
For the compound `COc1c2c(c3c(c1CCC(=O)O)OC(C)(C)C=C3)OC(C)(C)C=C2`, the GI50 is 65.2 µM (inactive) in the experiment on SK-MEL-5; > 100 µM (inactive) with HCC 2998; > 100 µM (inactive) in the experiment with UACC-257; 55.1 µM (inactive) with NCI-H522; > 100 µM (inactive) in the experiment with OVCAR-4; 94.8 µM (inactive) in the experiment with HCT-116. Besides, the GI50 in the experiment on NCI/ADR-RES, in the experiment on DU-145, in the experiment with T47D, with OVCAR-5, in the experiment on MDA-MB-231 and in the experiment with RXF 393 was > 100 µM (inactive) throughout. In addition, the GI50 is > 100 µM (inactive) in the experiment on HOP-62; > 100 µM (inactive) with IGROV-1; 58.7 µM (inactive) in the experiment with OVCAR-3; > 100 µM (inactive) with BT-549; > 100 µM (inactive) in the experiment with CAKI-1; greater than 100 µM with HCT-15. In addition, the GI50 in the experiment with Malme-3M is > 100 µM (inactive).
Consider `CC(=O)OCCn1c(Cc2ccc(Cl)cc2)nn(C(C)=O)c1=O`, for which the GI50 in the experiment on SK-MEL-5, with HCC 2998, in the experiment on UACC-257, in the experiment on NCI-H522, in the experiment with CCRF-CEM and with OVCAR-4 was > 100 µM (inactive) in each case. Moreover, the GI50 in the experiment on HCT-116, in the experiment on NCI/ADR-RES, in the experiment on DU-145, in the experiment with T47D, in the experiment with OVCAR-5 and in the experiment with MDA-MB-231 was > 100 µM (inactive) throughout. The GI50 with IGROV-1 was > 100 µM (inactive); in the experiment on OVCAR-3, > 100 µM (inactive); with BT-549, > 100 µM (inactive); in the experiment on CAKI-1 it was > 100 µM (inactive); in the experiment on HCT-15 it was greater than 100 µM; in the experiment with Malme-3M, > 100 µM (inactive).
Regarding `CSc1ncc2c(n1)-c1ccccc1OC2N1CCCC1` (stereo not given), the GI50 was > 100 µM (inactive) with SK-MEL-5; > 100 µM (inactive) with UACC-257; 36.6 µM (inactive) with NCI-H522; 58.5 µM (inactive) with CCRF-CEM; 21 µM (inactive) with OVCAR-4; > 100 µM (inactive) in the experiment on HCT-116. Besides, the GI50 with NCI/ADR-RES was 93.8 µM (inactive); in the experiment with DU-145, > 100 µM (inactive); with T47D it was 35.8 µM (inactive); in the experiment with OVCAR-5, > 100 µM (inactive); in the experiment on MDA-MB-231, > 100 µM (inactive); in the experiment on RXF 393, 64.6 µM (inactive). Besides, the GI50 was 47.8 µM (inactive) with IGROV-1; 47.4 µM (inactive) with OVCAR-3; 75 µM (inactive) with BT-549; 31 µM (inactive) in the experiment on CAKI-1; 49.9 µM in the experiment with HCT-15.
Turning to `O=C(NC(CO)CO)c1ccc2cc(C(=O)N3CC(CCl)c4ccc([N+](=O)[O-])cc43)[nH]c2c1` (stereo not given), the GI50 with SK-MEL-5, in the experiment on HCC 2998, in the experiment with UACC-257, in the experiment with CCRF-CEM, in the experiment on OVCAR-4 and in the experiment on HCT-116 was > 100 µM (inactive) each time. Besides, the GI50 in the experiment with NCI/ADR-RES is > 100 µM (inactive); in the experiment on DU-145 it was > 100 µM (inactive); in the experiment on T47D, 0.619 µM (active); in the experiment on OVCAR-5 it was > 100 µM (inactive); with MDA-MB-231, 66.1 µM (inactive); with RXF 393 it was > 100 µM (inactive). Besides, the GI50 in the experiment on HOP-62 was > 100 µM (inactive); in the experiment with IGROV-1 it was > 100 µM (inactive); with OVCAR-3 it was > 100 µM (inactive); with BT-549, > 100 µM (inactive); in the experiment with CAKI-1, > 100 µM (inactive); with HCT-15, greater than 100 µM. The GI50 with Malme-3M is > 100 µM (inactive).
For the compound `COC(=O)[C@@H]1[C@H]2CC[C@]3(C)[C@@H](OC(C)=O)CC[C@H]3[C@@H]2CC[C@H]1C(C)=O`, the GI50 in the experiment with SK-MEL-5, in the experiment on HCC 2998, in the experiment with UACC-257, in the experiment on NCI-H522, in the experiment on CCRF-CEM and with HCT-116 was > 100 µM (inactive) throughout. Further, the GI50 in the experiment with NCI/ADR-RES, in the experiment on DU-145, with T47D, in the experiment on OVCAR-5, in the experiment on MDA-MB-231 and in the experiment on RXF 393 was > 100 µM (inactive) throughout. In addition, the GI50 in the experiment with HOP-62 is > 100 µM (inactive); in the experiment on IGROV-1 it was > 100 µM (inactive); in the experiment on OVCAR-3, > 100 µM (inactive); in the experiment with BT-549, > 100 µM (inactive); with CAKI-1 it was > 100 µM (inactive); in the experiment on HCT-15, greater than 100 µM. Further, the GI50 with Malme-3M is > 100 µM (inactive).
In the case of `O=c1nc2n(cc1/C=C\Br)C1CC(O)C(CO2)O1` (stereo not given), the GI50 is > 100 µM (inactive) in the experiment on SK-MEL-5; > 100 µM (inactive) in the experiment with HCC 2998; > 100 µM (inactive) with UACC-257; 36.7 µM (inactive) in the experiment on CCRF-CEM; > 100 µM (inactive) in the experiment on OVCAR-4; > 100 µM (inactive) in the experiment on HCT-116. For the same compound, the GI50 in the experiment on NCI/ADR-RES was > 100 µM (inactive); with DU-145, > 100 µM (inactive); in the experiment with T47D it was > 100 µM (inactive); with OVCAR-5, > 100 µM (inactive); in the experiment on MDA-MB-231, > 100 µM (inactive); in the experiment on RXF 393, 25 µM (inactive). Moreover, the GI50 in the experiment on HOP-62 was > 100 µM (inactive); in the experiment with IGROV-1 it was > 100 µM (inactive); in the experiment on OVCAR-3, > 100 µM (inactive); in the experiment on BT-549, > 100 µM (inactive); in the experiment on CAKI-1 it was > 100 µM (inactive); in the experiment on HCT-15, greater than 100 µM. Moreover, in the experiment with Malme-3M, the GI50 is > 100 µM (inactive).
On to `N#CI1OC(=O)c2ccccc21`, for which the GI50 with SK-MEL-5 was > 100 µM (inactive); in the experiment with HCC 2998 it was > 100 µM (inactive); with UACC-257, > 100 µM (inactive); in the experiment with NCI-H522, 18.2 µM (inactive); in the experiment on CCRF-CEM it was 2.83 µM (inactive); in the experiment with OVCAR-4, > 100 µM (inactive). Besides, the GI50 in the experiment with HCT-116, in the experiment on NCI/ADR-RES, in the experiment with DU-145, in the experiment with T47D, with OVCAR-5 and in the experiment on MDA-MB-231 was > 100 µM (inactive) each time. For the same compound, the GI50 with RXF 393 was > 100 µM (inactive); in the experiment on HOP-62, > 100 µM (inactive); in the experiment with IGROV-1 it was > 100 µM (inactive); in the experiment with OVCAR-3, > 100 µM (inactive); in the experiment on BT-549, 91.2 µM (inactive); in the experiment with CAKI-1 it was 40.7 µM (inactive). In the experiment with HCT-15, this compound showed a GI50 of 37.2 µM.
On to `CC(C)CCOC(=O)NC(Nc1ccc(F)cc1)(C(F)(F)F)C(F)(F)F`, for which the GI50 with SK-MEL-5 was 12.6 µM (inactive); in the experiment with HCC 2998, 21.7 µM (inactive); with UACC-257, > 100 µM (inactive); in the experiment with NCI-H522 it was 25.8 µM (inactive); in the experiment with CCRF-CEM, 19.5 µM (inactive); with HCT-116, 65.9 µM (inactive). Moreover, the GI50 in the experiment on NCI/ADR-RES is 52.6 µM (inactive); in the experiment on DU-145, 7.36 µM (inactive); in the experiment on T47D, 6.22 µM (inactive); in the experiment on OVCAR-5, 97.3 µM (inactive); with MDA-MB-231 it was 7.91 µM (inactive); with RXF 393, > 100 µM (inactive). In addition, the GI50 with HOP-62 is 37.2 µM (inactive); with IGROV-1, 38.2 µM (inactive); with OVCAR-3, 37.4 µM (inactive); in the experiment with BT-549, 9.75 µM (inactive); in the experiment on CAKI-1, 19.5 µM (inactive); in the experiment with HCT-15, 1.68 µM. For the same compound, the GI50 with Malme-3M was > 100 µM (inactive).
